The results in this text go back to PubChem BioAssay (NCI).

Among the test systems are A498 renal; ACHN renal; CCRF-CEM leukemia; COLO 205 colon; HCT-15 colon; KM12 colon; MCF7 breast; MDA-MB-435; NCI-H522 lung; OVCAR-5 ovarian; RXF 393 renal; SK-OV-3 ovarian; SF-539 CNS.
Holding throughout (test): NCI-60 cell line screen, 48 h

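Assay format: 96-well plates, 48-hour exposure. TGI is the concentration that stops growth completely.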 Bounds are passed on as bounds.

For the compound `CN1CCN(Cc2nc3c(s2)CCc2sccc2-3)CC1`, the TGI in the assay on A498 renal was 83.4 µM; in the assay with ACHN renal, more than 100 µM; with CCRF-CEM leukemia it was more than 100 µM; with COLO 205 colon, more than 100 µM; in the assay on HCT-15 colon it was more than 100 µM; in the assay with KM12 colon it was more than 100 µM. Besides, the TGI in the assay on MCF7 breast, with MDA-MB-435, with NCI-H522 lung, in the assay with OVCAR-5 ovarian, with RXF 393 renal and in the assay with SK-OV-3 ovarian was more than 100 µM in each case.

As to `O=C1CC2CC(CC3(CO3)C2)C1F` (stereo not drawn), the TGI in the assay with A498 renal, with ACHN renal, with CCRF-CEM leukemia, with COLO 205 colon, with HCT-15 colon and with KM12 colon was more than 100 µM in each case. Besides, the TGI in the assay on MCF7 breast, in the assay on MDA-MB-435, in the assay on NCI-H522 lung, in the assay with OVCAR-5 ovarian, in the assay with RXF 393 renal and in the assay with SK-OV-3 ovarian was more than 100 µM throughout.

For `CN(C)CC1CCC/C(=C\c2ccccc2)C1=O` (stereo not drawn), the TGI was 31.2 µM in the assay with A498 renal; 12.6 µM in the assay on ACHN renal; more than 100 µM in the assay on CCRF-CEM leukemia; 5.27 µM in the assay on COLO 205 colon; 4.67 µM with HCT-15 colon; 2.59 µM in the assay on KM12 colon. For the same compound, the TGI stood at 2.18 µM with MCF7 breast; 3.54 µM in the assay on MDA-MB-435; 2.95 µM in the assay on NCI-H522 lung; 29 µM in the assay on OVCAR-5 ovarian; 7.38 µM in the assay on RXF 393 renal; 14.3 µM in the assay with SF-539 CNS. Also, the TGI with SK-OV-3 ovarian stood at 34 µM.

`CCNc1nnc(-c2ccccc2Nc2ccccc2-c2nnc(NCC)s2)s1`: the TGI with A498 renal was 91 µM; in the assay with ACHN renal, 31 µM; with CCRF-CEM leukemia it was 31.4 µM; in the assay on COLO 205 colon, more than 53.9 µM; in the assay on HCT-15 colon, more than 45.2 µM; with KM12 colon, 37.2 µM. Moreover, the TGI with MCF7 breast turned out to be 29.7 µM; with MDA-MB-435, 71.4 µM; in the assay with NCI-H522 lung, 26.9 µM; with OVCAR-5 ovarian it was 48.5 µM; in the assay on RXF 393 renal, 85.8 µM; in the assay on SK-OV-3 ovarian, 31.3 µM.

In the case of `COc1cc(C2OC[C@@H]3C(=O)OC[C@H]23)cc(O)c1OC` (stereo partly drawn), the TGI in the assay with A498 renal, with ACHN renal, in the assay on CCRF-CEM leukemia, in the assay on COLO 205 colon, in the assay on HCT-15 colon and with KM12 colon was more than 100 µM throughout. The TGI in the assay with MCF7 breast, in the assay with MDA-MB-435, in the assay with NCI-H522 lung, in the assay on OVCAR-5 ovarian, in the assay on RXF 393 renal and in the assay with SF-539 CNS was more than 100 µM in each case. This compound also came in with a TGI with SK-OV-3 ovarian of more than 100 µM.

Regarding `O=C1/C(=C/c2ccc(O)c(O)c2)CC/C1=C\c1ccc(O)c(O)c1`, the TGI was 63.2 µM in the assay with A498 renal; 26.6 µM in the assay with ACHN renal; 9.81 µM with CCRF-CEM leukemia; more than 86.8 µM in the assay with COLO 205 colon; more than 100 µM in the assay with HCT-15 colon; more than 100 µM in the assay on KM12 colon. Further, the TGI was 22.3 µM with MCF7 breast; more than 100 µM with MDA-MB-435; 5.42 µM with NCI-H522 lung; more than 100 µM in the assay with OVCAR-5 ovarian; 19.3 µM in the assay with RXF 393 renal; 9.64 µM in the assay with SF-539 CNS. The compound also yielded a TGI with SK-OV-3 ovarian of more than 60.2 µM.

Take `CCC1CCC2c3c([nH]c4ccc(C)cc34)C3C(=O)N(N(C)C)C(=O)C3C2C1` (stereo not drawn): the TGI with A498 renal, in the assay with ACHN renal, with CCRF-CEM leukemia, with COLO 205 colon, in the assay with HCT-15 colon and in the assay with KM12 colon was more than 100 µM throughout. Besides, the TGI in the assay on MCF7 breast was more than 100 µM; with MDA-MB-435, more than 33.4 µM; in the assay on NCI-H522 lung it was 2.68 µM; in the assay with OVCAR-5 ovarian, more than 100 µM; in the assay on RXF 393 renal, 57.7 µM; with SF-539 CNS, 45.5 µM. Besides, the TGI in the assay on SK-OV-3 ovarian was more than 100 µM.

Consider `CC(=O)NC1COC(COC(=O)CCCCCCCCCCNC(=O)c2ccc([N+](=O)[O-])c3c(=O)c4ccccc4[nH]c23)C(O)C1OC(C)C(=O)NC(C(=O)NC(CCC(N)=O)C(=O)OCc1ccccc1)C(C)C` (stereo not drawn), for which the TGI in the assay on A498 renal came to 47.7 µM; with ACHN renal, 39.4 µM; with CCRF-CEM leukemia it was 62.7 µM; in the assay with COLO 205 colon, 41.2 µM; with HCT-15 colon, 50.2 µM; in the assay with KM12 colon, 11.6 µM. Besides, the TGI is 14.8 µM with MCF7 breast; more than 100 µM in the assay on MDA-MB-435; 35.4 µM in the assay on NCI-H522 lung; more than 81.5 µM in the assay on OVCAR-5 ovarian; 23.2 µM with RXF 393 renal; 58.3 µM with SF-539 CNS. In addition, in the assay on SK-OV-3 ovarian, the TGI came to 78.8 µM.

For `Cc1ccsc1C(=S)Nc1ccc(Cl)c(/C=N/OC(C)C)c1`, the TGI in the assay with A498 renal is more than 100 µM; in the assay with ACHN renal, more than 100 µM; in the assay on CCRF-CEM leukemia, more than 100 µM; in the assay on COLO 205 colon, 47.3 µM; in the assay with HCT-15 colon it was more than 100 µM; in the assay on KM12 colon, more than 100 µM. The TGI is 62.6 µM in the assay with MCF7 breast; more than 100 µM in the assay on MDA-MB-435; more than 100 µM in the assay with NCI-H522 lung; more than 100 µM in the assay on OVCAR-5 ovarian; 69.4 µM in the assay on RXF 393 renal; more than 100 µM with SF-539 CNS. In addition, the TGI in the assay on SK-OV-3 ovarian was more than 100 µM.

As to `COC(=O)/N=[N+](\[O-])C(c1ccccc1)c1ccccc1`, the TGI with A498 renal, with CCRF-CEM leukemia, with COLO 205 colon, in the assay on HCT-15 colon, with KM12 colon and with MCF7 breast was more than 100 µM in each case. In addition, the TGI with MDA-MB-435, with NCI-H522 lung, in the assay with OVCAR-5 ovarian, in the assay with RXF 393 renal, with SF-539 CNS and in the assay on SK-OV-3 ovarian was more than 100 µM throughout.

For the compound `C=C(Cl)C(C)(Cl)CCC(Cl)C(C)C` (stereo not drawn), the TGI in the assay with A498 renal, in the assay with ACHN renal, with CCRF-CEM leukemia, in the assay with COLO 205 colon, in the assay on KM12 colon and with MCF7 breast was more than 100 µM throughout. In addition, the TGI in the assay with MDA-MB-435, with NCI-H522 lung, with OVCAR-5 ovarian, with RXF 393 renal, in the assay with SF-539 CNS and in the assay on SK-OV-3 ovarian was more than 100 µM throughout.
